The values that follow come from patent US9880171B2, “iASPP phosphorylation and metastatic potential” (LUDWIG INSTITUTE FOR CANCER RESEARCH LTD., priority 2012, dated 2018).

Structures are written as SMILES.

Format in all cases: cell-based, human
Test [1] relates to slow-migrating iASPP in H1299 cells. The experiment in a line: induction of slow-migrating iASPP by chemotherapeutic agents in H1299 cells (WB). The settings on record: H1299, overnight treatment (oxidative stress inducers 1-3 h; EDTA 4 mM 1 hour), antibody LX49.3. The method, then: FIG. 3. […] H1299 cells were treated overnight with the indicated concentrations of mitosis-arrest drugs nocodazole, colchicine and taxol, DNA damaging drugs, or oxidative stress inducers (1-3 h). Total lysate was prepared in UREA buffer, and iASPP expression patterns were determined using antibody LX49.3. […] Mitotic-arrest drugs were applied to H1299 cells to induce iASPP mobility shift. Floating and adherent cells were collected, and iASPP expression pattern was determined by western blotting (WB). C. […] Left panel, cells in mitosis (floating) and interphase (adherent) were collected by mitotic shake-off, and iASPP expression pattern was determined by WB. Right panel, H1299 cells after Taxol treatment, or mitotic shake-off were immunofluorescence stained using antibody LX49.3. In mitotic shake-off experiment, mitotic shake-off cells were cytospun to slides; the remaining adherent cells after shaking were scraped off and used as interphase control. […] Melanoma cells were treated with nocodazole overnight and iASPP expression patterns from total cell lysate was determined by WB.
FIG. 4. A. Floating and adherent H1299 cells separately collected by mitotic shake-off (FIG. 3C) were stained with propidium iodide (PI), followed by FACS analysis. […] B. H1299 cells were subjected to treatment of 10 μM nocodazole for 24 hours (Nocodazole), on ice for 30 minutes (Cold shock), or 4 mM EDTA for 1 hour (EDTA). Left panel: iASPP expression pattern was analysed by immunoblotting. Right panel: phase contrast images were taken before collection of the cells for WB analysis. Bar=20 μm.
(§1) For WB, cells were lysed in buffer containing 8 M urea, 1 M thiourea, 0.5% CHAPS, 50 mM DTT, and 24 mM spermine. A total of 40 μg of protein extract was loaded per lane into SDS-polyacrylamide gels. Gels were transferred onto nitrocellulose membrane (Protran) and the resulting blots incubated first with primary antibody overnight at 4° C. and then with the appropriate secondary horseradish peroxidize-conjugated antibody (Dako). The results were visualized by enhanced chemiluminescent detection (Amersham Biosciences) using X-ray film (Fujifilm). For cell lysate immunoprecipitation, cells were dissolved in NP40 buffer (50 mM Tris-HCl pH 8.0, 150 mM NaCl, 1% NP-40) with protease inhibitor cocktail mix (Roche Diagnostics). Cells were further thoroughly broken by ultrasonication, followed by spinning for 1 hour. Achieved suspension was adjusted to 1-2 mg/ml using NP40 buffer and incubated with 20 μl nickel beads, glutathione beads, or protein A beads (with 2 μg required antibody) for 2 h at room temperature. The beads were washed for four times with NP40 buffer, boiled for 5 min in Laemmli sample buffer, and applied for Western blotting. For pure protein immunoprecipitation, 5-10 μg purified proteins were mixed in NP40 buffer with 1 mg/ml BSA for 2 h at room temperature.
As mitotic cells often detach from the tissue culture dish, floating cells were separated from adherent cells after the treatment of Nocodozole, Taxol and Colchicine.

Test [2] has as its system slow-migrating iASPP in melanoma cell lines. Description: induction of slow-migrating iASPP in melanoma cell lines (WB). The settings on record: panel of melanoma cell lines, nocodazole overnight. The method, then:
FIG. 3. Mitotic arrests induces slow-migrating nuclear iASPP. A. Mitosis-arresting (i.e., apoptosis-inducing) chemotherapeutic drugs induce slow-migrating iASPP. H1299 cells were treated overnight with the indicated concentrations of mitosis-arrest drugs nocodazole, colchicine and taxol, DNA damaging drugs, or oxidative stress inducers (1-3 h). Total lysate was prepared in UREA buffer, and iASPP expression patterns were determined using antibody LX49.3. B. Slow-migrating iASPP exclusively exists in mitotic cells after drug induction. Mitotic-arrest drugs were applied to H1299 cells to induce iASPP mobility shift. Floating and adherent cells were collected, and iASPP expression pattern was determined by western blotting (WB). C. Slow-migrating iASPP exists in natural mitotic cells and localized in nucleus (as determining by staining with the nuclear specific marker Topro). Left panel, cells in mitosis (floating) and interphase (adherent) were collected by mitotic shake-off, and iASPP expression pattern was determined by WB. Right panel, H1299 cells after Taxol treatment, or mitotic shake-off were immunofluorescence stained using antibody LX49.3. […] Melanoma cells were treated with nocodazole overnight and iASPP expression patterns from total cell lysate was determined by WB. […]

In test [3] the test system is iASPP modification and p53-iASPP binding in WM278 cells. The experiment in a line: iASPP modification and p53 co-immunoprecipitation in WM278 cells. As to conditions: 0.4 μM JNJ or 10 μM nocodazole overnight. As for the experimental part:
as §1

For `COC(=O)Nc1nc2ccc(C(=O)c3cccs3)cc2[nH]1` [Nocodazole], the “induction of slow-migrating iASPP isoform” value was “induced” in test [1] and “induced the conversion of faster migrating iASPP into the slower migrating iASPP isoform” in test [2]. Besides, in test [3], the “amount of modified iASPP” value is “induced iASPP modification”.
